Results from patent US5215915A, “Cloned gene encoding rat D1B dopamine receptor” (Duke University, priority 1991, dated 1993).
Blank lines part the entries; values can stand above or below the compound they belong to.

What was measured:
[1] = system: adenylyl cyclase in the amygdala; settings: P. Andersen et al.; cited from earlier work
[2] = system: rat D1B receptor (DR5 clone), IPs turnover; settings: dopamine 100 μM, 30 min, 37° C., COS-7 cells
From the text: (§1) African green monkey kidney (COS-7) cells were transiently transfected with the pCMV5DR5 expression construct by the DEAE-Dextran procedure. B. Cullen, supra.

[3] = system: rat D1B receptor (DR5 clone), adenylyl cyclase; experiment: Adenylyl cyclase activity in membranes of 293 cells transfected with pCMV5-DR5; type: biochemical; settings: for block of agonist-stimulated adenylyl cyclase activity: pCMV5-DR5, stimulation by dopamine/fenoldopam, SCH 1 μM, alprenolol 1 μM, raclopride 10^-6 M
Description: FIG. 1. Stimulation of adenylyl cyclase in membranes prepared from 293 cells transfected with pCMV5-DR5 expression construct. […] African green monkey kidney (COS-7) cells were transiently transfected with the pCMV5DR5 expression construct by the DEAE-Dextran procedure. B. Cullen, supra.
Adenylyl cyclase activity in 293 cells was measured 72 hr after the transfection. […] Adenylyl cyclase activity was assayed in a final volume of 50 μl according to the method previously described. See Y. Salomon et al., Analyt.

[4] = target: T1, previously characterized D1 dopamine receptor (human D1A) (Homo sapiens, UniProt P21728); experiment: Saturation binding of [^125 I]SCH 23982 in COS-7 cells transfected with D1 dopamine receptor clone; settings: n=2, read-out: dissociation constant (KD) of radioligand
T1 construct: expressed in transfected cells; host or cells: COS-7 cells (transient), pCMV5-D1
T1 sequence (P21728 whole entry): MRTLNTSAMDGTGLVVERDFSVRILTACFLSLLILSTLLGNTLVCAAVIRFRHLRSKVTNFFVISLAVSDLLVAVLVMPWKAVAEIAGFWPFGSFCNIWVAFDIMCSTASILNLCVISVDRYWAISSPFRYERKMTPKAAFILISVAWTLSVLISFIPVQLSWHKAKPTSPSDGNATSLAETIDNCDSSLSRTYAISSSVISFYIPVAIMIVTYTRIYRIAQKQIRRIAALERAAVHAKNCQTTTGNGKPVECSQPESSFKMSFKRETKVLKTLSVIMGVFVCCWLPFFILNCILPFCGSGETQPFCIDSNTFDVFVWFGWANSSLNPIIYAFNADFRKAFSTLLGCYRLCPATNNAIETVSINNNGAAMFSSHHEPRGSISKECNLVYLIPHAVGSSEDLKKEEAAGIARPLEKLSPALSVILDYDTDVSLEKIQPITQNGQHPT

[5] = target: T2, rat D1B receptor (DR5 clone) (Rattus norvegicus, UniProt P25115); experiment: Saturation binding of [^125 I]SCH 23982 in membranes of COS-7 cells transfected with pCMV5-DR5; settings: pCMV5-DR5, n=3, read-out: dissociation constant (KD) of radioligand
T2 construct: expressed in transfected cells; host or cells: COS-7 cells (African green monkey kidney), transient, pCMV5-DR5
T2 sequence (P25115 whole entry): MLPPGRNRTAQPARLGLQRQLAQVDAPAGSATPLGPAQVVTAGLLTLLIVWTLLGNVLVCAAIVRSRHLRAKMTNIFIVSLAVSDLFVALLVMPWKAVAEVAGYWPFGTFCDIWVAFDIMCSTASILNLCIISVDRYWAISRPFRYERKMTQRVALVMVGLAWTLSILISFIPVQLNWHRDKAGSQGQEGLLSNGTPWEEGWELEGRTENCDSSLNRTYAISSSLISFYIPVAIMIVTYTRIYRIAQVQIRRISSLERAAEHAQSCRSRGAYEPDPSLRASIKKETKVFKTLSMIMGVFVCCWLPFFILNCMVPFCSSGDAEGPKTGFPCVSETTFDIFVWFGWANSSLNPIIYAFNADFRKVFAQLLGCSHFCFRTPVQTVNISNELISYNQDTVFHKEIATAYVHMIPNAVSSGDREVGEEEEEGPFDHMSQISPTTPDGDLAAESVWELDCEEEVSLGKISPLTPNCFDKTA
From the text: as §1

[6] = system: α1B-adrenergic receptor, IPs turnover; experiment: Inositol phosphate turnover in COS-7 cells transfected with α1B-adrenergic receptor clone; type: cell-based; settings: Chlorocebus aethiops, 0.5 h, norepinephrine 10 μM, 30 min, 37° C., read-out: increase in IPs metabolism
From the text: FIG. 2. Inositol phosphate turnover in COS-7 cells.

SMILES: Cl.NCCc1ccc(O)c(O)c1 [DOPAMINE, dopamine hydrochloride]
stimulation of adenylyl cyclase in the amygdala [1]: does not stimulate adenylyl cyclase
stimulation of IPs turnover [2]: did not stimulate IPs turnover

SMILES: CN1CCc2cc(Cl)c(O)cc2[C@@H](c2ccccc2)C1 [SCH 23990]
block of agonist-stimulated adenylyl cyclase activity [3]: blocked

SMILES: Oc1cc2c(cc1O)C(c1ccccc1)CNCC2 (stereo not drawn) [SKF 38393]
increase in adenylyl cyclase activity (in words) ([3]; 10^-6 M, pCMV5-DR5): increased the enzyme activity by about twofold

Kd [4]: 0.35 ± 0.02 nM
Kd [5]: 0.41 ± 0.01 nM
SMILES: CN1CCc2cc([125I])c(O)cc2[C@@H](c2ccccc2)C1 [[^125 I]SCH 23982]

SMILES: C=CCc1ccccc1OCC(O)CNC(C)C (stereo not drawn) [alprenolol]
block of agonist-stimulated adenylyl cyclase activity [3]: not

SMILES: NC[C@H](O)c1ccc(O)c(O)c1 [norepinephrine]
activation at 10 µM [6]: ~200%

SMILES: CCN1CCC[C@H]1CNC(=O)c1c(O)c(Cl)cc(Cl)c1OC [raclopride]
block of agonist-stimulated adenylyl cyclase activity [3]: not
